This note sets out measurements from patent US7345070B2, “Peroxisome proliferator activated receptor agonists” (Eli Lilly and Company, priority 2000, dated 2008).

Structures are written as SMILES.

Test [1] addresses T1, huPPARγ (Homo sapiens, UniProt P37231).
T1 sequence (P37231 1-505): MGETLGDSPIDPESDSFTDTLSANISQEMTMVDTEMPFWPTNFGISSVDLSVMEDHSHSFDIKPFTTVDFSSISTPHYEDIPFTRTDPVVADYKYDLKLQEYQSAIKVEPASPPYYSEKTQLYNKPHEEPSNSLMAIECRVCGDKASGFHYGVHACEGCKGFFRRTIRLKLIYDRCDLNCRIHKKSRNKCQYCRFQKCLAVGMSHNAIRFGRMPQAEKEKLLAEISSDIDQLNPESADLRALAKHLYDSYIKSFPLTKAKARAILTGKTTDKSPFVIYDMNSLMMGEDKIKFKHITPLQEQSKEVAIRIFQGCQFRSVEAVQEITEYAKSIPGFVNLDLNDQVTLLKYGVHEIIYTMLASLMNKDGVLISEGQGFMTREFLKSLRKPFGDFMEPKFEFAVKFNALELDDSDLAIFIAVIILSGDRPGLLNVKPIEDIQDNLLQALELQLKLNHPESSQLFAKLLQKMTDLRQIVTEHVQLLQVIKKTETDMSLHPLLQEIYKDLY
T1 sequence (P19793 1-462 partner): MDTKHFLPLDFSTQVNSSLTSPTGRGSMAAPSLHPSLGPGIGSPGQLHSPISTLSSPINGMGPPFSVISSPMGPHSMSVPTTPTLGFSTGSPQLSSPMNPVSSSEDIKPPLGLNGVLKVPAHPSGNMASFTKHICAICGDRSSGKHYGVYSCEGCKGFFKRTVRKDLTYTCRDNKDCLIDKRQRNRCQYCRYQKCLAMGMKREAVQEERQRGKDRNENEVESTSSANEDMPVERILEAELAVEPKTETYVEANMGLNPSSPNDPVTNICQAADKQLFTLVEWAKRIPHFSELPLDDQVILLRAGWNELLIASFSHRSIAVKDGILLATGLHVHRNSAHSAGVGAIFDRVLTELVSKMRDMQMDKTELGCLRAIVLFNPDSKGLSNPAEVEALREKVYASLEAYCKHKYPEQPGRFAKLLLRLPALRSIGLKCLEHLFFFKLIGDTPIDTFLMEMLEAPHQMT
Nature of the test: Cotransfection assay in CV-1 cells, huPPARγ. Also noted: Appropriate PPARs and RXRα were constitutively expressed using plasmids containing the CMV promoter; expressed in transfected cells; host or cells: CV-1 cells. The note with it: AOX PPRE luciferase reporter, relative to PPARγ agonist reference molecule, read-out: huPPARγ CTF Efficacy. The format is cell-based. The protocol: (§1) DNA-dependent binding (ABCD binding) was carried out using SPA technology with PPAR receptors. Tritium-labeled PPARα and PPARγ agonists were used as radioligands for generating displacement curves and IC50 values with compounds of the invention. Cotransfection assays were carried out in CV-1 cells. The reporter plasmid contained an acylCoA oxidase (AOX) PPRE and TK promoter upstream of the luciferase reporter cDNA. Appropriate PPARs and RXRα were constitutively expressed using plasmids containing the CMV promoter. […] In order to eliminate such interference, a GAL4 chimeric system was used in which the DNA binding domain of the transfected PPAR was replaced by that of GAL4, and the GAL4 response element was utilized in place of the AOX PPRE. Cotransfection efficacy was determined relative to PPARα agonist and PPARγ agonist reference molecules. Efficacies were determined by computer fit to a concentration-response curve, or in some cases at a single high concentration of agonist (10 μM). For binding or cotransfection studies with receptors other than PPARs, similar assays were carried out using appropriate ligands, receptors, reporter constructs, etc., for that particular receptor.
(§2) These studies were carried out to evaluate the ability of compounds of the invention to bind to and/or activate various nuclear transcription factors, particularly huPPARα (“hu” indicates “human”) and huPPARγ. These studies provide in vitro data concerning efficacy and selectivity of compounds of the invention. Furthermore, binding and cotransfection data for compounds of the invention were compared with corresponding data for marketed compounds that act on either huPPARα or huPPARγ.
A general note: In a reporter assay the amount or activity of a reporter protein is the signal.

Test [2] relates to huPPARα. The experiment in a line: Cotransfection assay in CV-1 cells, huPPARα. The test is classed as cell-based, human. The note with it: GAL4 chimeric system, relative to PPARα agonist reference molecule. In a few lines: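 Binding: SPA displacement of tritiated PPARα or PPARγ agonist, giving IC50. Cotransfection: CV-1 cells with CMV-driven PPAR and RXRα, luciferase reporter (AOX PPRE/TK or GAL4 chimera); efficacy relative to PPARα or PPARγ reference agonists, from curve fit or at 10 μM.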

For test [3], the target named is T2, huPPARα (Homo sapiens, UniProt Q07869).
T2 sequence (Q07869 1-468): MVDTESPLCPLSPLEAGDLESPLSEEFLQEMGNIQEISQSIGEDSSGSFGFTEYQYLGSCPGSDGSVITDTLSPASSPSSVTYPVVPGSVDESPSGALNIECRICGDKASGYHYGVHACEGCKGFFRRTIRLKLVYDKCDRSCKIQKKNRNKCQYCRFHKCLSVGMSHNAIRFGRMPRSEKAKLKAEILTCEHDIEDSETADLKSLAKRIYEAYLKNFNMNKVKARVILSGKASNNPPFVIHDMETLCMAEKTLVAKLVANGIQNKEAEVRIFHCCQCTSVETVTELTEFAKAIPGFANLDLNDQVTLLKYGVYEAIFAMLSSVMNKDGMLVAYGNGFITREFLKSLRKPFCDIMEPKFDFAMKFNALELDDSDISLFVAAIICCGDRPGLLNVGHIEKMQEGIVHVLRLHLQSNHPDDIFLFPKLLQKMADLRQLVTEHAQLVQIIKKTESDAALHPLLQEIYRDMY
T2 sequence (P19793 1-462 partner): T1 sequence (P19793 1-462 partner)
The experiment in a line: DNA-dependent binding (ABCD binding) using SPA technology, huPPARα. The note with it: SPA displacement of tritium-labeled PPARα agonist radioligand. How it is done:
as §1, §2

For test [4], the target named is T1, huPPARγ. The experiment in a line: DNA-dependent binding (ABCD binding) using SPA technology, huPPARγ. The note with it: SPA displacement of tritium-labeled PPARγ agonist radioligand. The protocol:
as §1, §2

As a reminder, the IC50 is the midpoint of a concentration-inhibition curve. Read a high IC50 as weaker potency. On to `COc1ccc(OC(C)(Cc2ccc(OCCc3nc(-c4cccs4)oc3C)cc2)C(=O)O)cc1` (centres unmarked) [Example 19, 2-Methyl-3-{4-[2-(5-methyl-2-thiophen-2-yl-oxazol-4-yl)-ethoxy]-phenyl}-2-(4-methoxyphenoxy)-propionic acid], for which, in test [1], the Emax turned out to be 23%. In test [2], the “huPPARα CTF Efficacy” value is 64%. The IC50 in test [3] is 0.085 µM; in test [4], 0.08 µM.
Take `Cc1oc(-c2ccccc2)nc1CCOc1ccc(CC(C)(Oc2ccc3c(c2)OCO3)C(=O)O)cc1` (centres unmarked) [Example 78, 2-(Benzo[1,3]dioxol-5-yloxy)-2-methyl-3-{4-[2-(5-methyl-2-phenyl-oxazol-4-yl)-ethoxy]-phenyl}-propionic acid]: the Emax in test [1] turned out to be 17%. Further, the “huPPARα CTF Efficacy” value in test [2] was determined as 52%. For the same compound, the results for the IC50 in test [3] and in test [4] were 0.075 µM and 0.089 µM, respectively.
For `Cc1oc(C2CCCCC2)nc1CCOc1ccc(CC(C)(Oc2ccc3c(c2)OCO3)C(=O)O)cc1` (centres unmarked) [Example 80, 2-(Benzo[1,3]dioxol-5-yloxy)-3-{4-[2-(2-cyclohexyl-5-methyl-oxazol-4-yl)-ethoxy]-phenyl}-2-methyl-propionic acid] the same measures were 30%, 84%, 0.076 µM and 0.08 µM.
For `Cc1oc(-c2cccs2)nc1CCOc1ccc(CC(C)(Oc2cccc(F)c2)C(=O)O)cc1` (centres unmarked) [Example 22, 2-(3-Fluoro-phenoxy)-2-methyl-3-{4-[2-(5-methyl-2-thiophen-2-yl-oxazol-4-yl)-ethoxy]-phenyl}-propionic acid], in that order: 12%, 51%, 0.07 µM and 0.085 µM.
Take `Cc1oc(C2CCCCC2)nc1CCOc1ccc(CC(C)(Oc2ccc(C(F)(F)F)cc2)C(=O)O)cc1` (centres unmarked) [Example 52, 3-{4-[2-(2-Cyclohexyl-5-methyl-oxazol-4-yl)-ethoxy]-phenyl}-2-methyl-2-(4-trifluoromethyl-phenoxy)-propionic acid]: the Emax in test [1] was 61%. In addition, the “huPPARα CTF Efficacy” value in test [2] worked out at 108%. Moreover, the IC50 stood at 0.062 µM in test [3] and 0.076 µM in test [4].
For `Cc1oc(-c2cccs2)nc1CCOc1ccc(CC(C)(Oc2ccc(C(C)(C)C)cc2)C(=O)O)cc1` (centres unmarked) [Example 17, 2-Methyl-3-{4-[2-(5-methyl-2-thiophen-2-yl-oxazol-4-yl)-ethoxy]-phenyl}-2-(4-tert-butylphenoxy)-propionic acid] the same measures were 105%, 129%, 0.068 µM and 0.067 µM.
For `Cc1oc(-c2cccs2)nc1CCOc1ccc(CC(C)(Oc2cccc(C(C)(C)C)c2)C(=O)O)cc1` (centres unmarked) [Example 25, 2-(3-tert-Butyl-phenoxy)-2-methyl-3-{4-[2-(5-methyl-2-thiophen-2-yl-oxazol-4-yl)-ethoxy]-phenyl}-propionic acid], in that order: 106%, 95%, 0.073 µM and 0.07 µM.
Regarding `Cc1oc(-c2cccs2)nc1CCOc1ccc(CC(C)(Oc2ccc(C(F)(F)F)cc2)C(=O)O)cc1` (centres unmarked) [Example 51, 2-Methyl-3-{4-[2-(5-methyl-2-thiophen-2-yl-oxazol-4-yl)-ethoxy]-phenyl}-2-(4-trifluoromethyl-phenoxy)-propionic acid], the Emax in test [1] came to 48%. Moreover, in test [2], the “huPPARα CTF Efficacy” value turned out to be 152%. Moreover, the IC50 in test [3] was determined as 0.064 µM; in test [4], 0.08 µM.
For `Cc1ccc(OC(C)(Cc2ccc(OCCc3nc(-c4cccs4)oc3C)cc2)C(=O)O)cc1C` (centres unmarked) [Example 36, 2-(3,4-Dimethyl-phenoxy)-2-methyl-3-{4-[2-(5-methyl-2-thiophen-2-yl-oxazol-4-yl)-ethoxy]-phenyl}-propionic acid], in that order: 21%, 70%, 0.072 µM and 0.088 µM.
For `Cc1cccc(OC(C)(Cc2ccc(OCCc3nc(-c4cccs4)oc3C)cc2)C(=O)O)c1` (centres unmarked) [Example 61, 2-Methyl-3-{4-[2-(5-methyl-2-thiophen-2-yl-oxazol-4-yl)-ethoxy]-phenyl}-2-m-tolyloxy-propionic acid], in that order: 12%, 52%, 0.064 µM and 0.084 µM.
On to `Cc1oc(C2CCCCC2)nc1CCOc1ccc(CC(C)(Oc2ccc(F)cc2)C(=O)O)cc1` (centres unmarked) [Example 65, 3-{4-[2-(2-Cyclohexyl-5-methyl-oxazol-4-yl)-ethoxy]-phenyl}-2-(4-fluoro-phenoxy)-2-methyl-propionic acid], for which the Emax in test [1] was 24%. For the same compound, the “huPPARα CTF Efficacy” value in test [2] came out at 46%. The IC50 stood at 0.071 µM in test [3] and 0.082 µM in test [4].
For `Cc1oc(-c2cccs2)nc1CCOc1ccc(CC(C)(Oc2cccc(C(F)(F)F)c2)C(=O)O)cc1` (centres unmarked) [Example 71, 2-Methyl-3-{4-[2-(5-methyl-2-thiophen-2-yl-oxazol-4-yl)-ethoxy]-phenyl}-2-(3-trifluoromethyl-phenoxy)-propionic acid], the Emax in test [1] turned out to be 50%. Besides, the “huPPARα CTF Efficacy” value in test [2] is given as 142%. For the same compound, the IC50 in test [3] was 0.078 µM; in test [4], 0.081 µM.
For `Cc1ccc(OC(C)(Cc2ccc(OCCc3nc(C4CCCCC4)oc3C)cc2)C(=O)O)cc1C` (centres unmarked) [Example 35, 3-{4-[2-(2-Cyclohexyl-5-methyl-oxazol-4-yl)-ethoxy]-phenyl}-2-(3,4-dimethyl-phenoxy)-2-methyl-propionic acid], in that order: 21%, 78%, 0.066 µM and 0.079 µM.
As to `Cc1ccc(OC(C)(Cc2ccc(OCCc3nc(C4CCCCC4)oc3C)cc2)C(=O)O)cc1` (centres unmarked) [Example 41, 3-{4-[2-(2-Cyclohexyl-5-methyl-oxazol-4-yl)-ethoxy]-phenyl}-2-methyl-2-p-tolyloxy-propionic acid], the Emax in test [1] came to 11%. Moreover, the “huPPARα CTF Efficacy” value in test [2] turned out to be 49%. Besides, the half-maximal inhibitory concentration (IC50) in test [3] was determined as 0.066 µM; in test [4], 0.109 µM.
